Assay [1] concerns the target T1, BA/F3-FLT3-ITD + D835Y (Homo sapiens, UniProt P36888, D835Y, cells depend on it, form not given).
T1 sequence (P36888 with tags, fused parts or gaps INS600HVDFREYEYD/D835Y): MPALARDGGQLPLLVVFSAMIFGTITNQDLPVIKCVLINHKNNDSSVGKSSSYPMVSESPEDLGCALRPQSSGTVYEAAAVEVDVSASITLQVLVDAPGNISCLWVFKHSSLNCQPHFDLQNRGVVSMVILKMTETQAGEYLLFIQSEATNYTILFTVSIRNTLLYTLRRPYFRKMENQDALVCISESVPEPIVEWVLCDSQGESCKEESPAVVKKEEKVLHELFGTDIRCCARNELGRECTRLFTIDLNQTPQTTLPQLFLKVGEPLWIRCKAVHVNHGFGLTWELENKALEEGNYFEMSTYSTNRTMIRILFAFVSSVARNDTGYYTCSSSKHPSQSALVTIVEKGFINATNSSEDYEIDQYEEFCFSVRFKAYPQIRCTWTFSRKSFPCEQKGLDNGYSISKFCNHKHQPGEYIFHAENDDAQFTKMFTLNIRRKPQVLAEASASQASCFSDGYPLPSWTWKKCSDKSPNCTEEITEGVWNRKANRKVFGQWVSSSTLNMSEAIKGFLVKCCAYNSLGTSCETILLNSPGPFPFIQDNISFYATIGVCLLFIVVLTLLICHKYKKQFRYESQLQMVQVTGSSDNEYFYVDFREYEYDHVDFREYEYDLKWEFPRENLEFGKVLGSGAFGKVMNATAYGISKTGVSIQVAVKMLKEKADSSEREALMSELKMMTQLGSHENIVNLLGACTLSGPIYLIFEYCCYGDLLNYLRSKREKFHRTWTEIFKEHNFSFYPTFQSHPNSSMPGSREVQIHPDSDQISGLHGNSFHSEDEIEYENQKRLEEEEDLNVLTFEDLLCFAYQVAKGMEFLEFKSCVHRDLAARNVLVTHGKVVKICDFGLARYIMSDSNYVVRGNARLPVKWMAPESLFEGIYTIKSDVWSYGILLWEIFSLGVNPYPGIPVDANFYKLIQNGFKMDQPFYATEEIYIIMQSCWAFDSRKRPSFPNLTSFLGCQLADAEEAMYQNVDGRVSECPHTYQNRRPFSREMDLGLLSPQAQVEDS
The assay can be described thus: Engineered BA/F3 cell growth assay, FLT3 ITD/D835Y. The format is cell-based, murine. The note with it: 3 d growth. The method, boiled down:
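Murine Ba/F3 cells transfected with full-length FLT3 ITD/D835Y, grown without IL-3 so growth depends on FLT3. Seeded at 1×10^4 cells/well, 8-point 1:3 series to 1 μM top (0.2% DMSO), 3 days at 37 °C. CellTiter-Glo luminescence (ATP) versus concentration gave IC50.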

Assay [2] concerns MOLM-14 F691L (endogenous FLT3 ITD and transfected FLT3 F691L). The assay can be described thus: MOLM-14 F691L cell proliferation assay (CellTiter-Glo). The note with it: Homo sapiens, MOLM-14, 72 h; 3 d growth, GMean. The format is cell-based. The method, boiled down: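 MOLM-14 cells (FLT3 ITD) carrying D835Y or F691L, 1×10^4 cells/well, eight 1:3 dilutions from 1 μM final, 0.2% DMSO, 3 days at 37 °C, 5% CO2. Viability by CellTiter-Glo luminescence (ATP content); IC50 from concentration-response.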

Each structure is given as a SMILES string.

By GI50 is commonly meant the concentration giving 50% growth inhibition. As usually defined, the IC50 is the point on the concentration scale where inhibition reaches its midpoint. A lower IC50 goes with inhibition by little substance.

For `Cn1cnc(Nc2ncc(-c3ccc(CC(=O)Nc4cc(C(F)(F)F)ccn4)cc3)cn2)c1` [Compound P-0022, 2-[4-[2-[(1-methylimidazol-4-yl)amino]pyrimidin-5-yl]phenyl]-N-[4-(trifluoromethyl)-2-pyridyl]acetamide], in assay [1], the GI50 was in the range of 0.0001 to 10 µM. In assay [2], this compound showed an IC50 of 0.0001 to 10 µM.

As for `CCn1cc(Nc2ncc(-c3ccc(CC(=O)Nc4cnc(C)c(C(F)(F)F)c4)cc3F)cn2)cn1` [Compound P-0248, 2-[4-[2-[(1-ethylpyrazol-4-yl)amino]pyrimidin-5-yl]-3-fluoro-phenyl]-N-[6-methyl-5-(trifluoromethyl)-3-pyridyl]acetamide], in assay [1], the concentration for 50% growth inhibition (GI50) lay within 0.0001 to 10 µM. For the same compound, in assay [2], the IC50 lay in the range of 0.0001 to 10 µM.

In the case of `Cn1cc(Nc2ncc(-c3cc(F)c(CC(=O)Nc4cc(C(F)(F)F)ccn4)cc3F)cn2)cn1` [Compound P-0019, 2-[2,5-difluoro-4-[2-[(1-methylpyrazol-4-yl)amino]pyrimidin-5-yl]phenyl]-N-[4-(trifluoromethyl)-2-pyridyl]acetamide], the GI50 in assay [1] is 0.0001 to 10 µM. In addition, the IC50 in assay [2] fell in the range of 0.0001 to 10 µM.

Regarding `CCn1cc(Nc2ncc(-c3ccc(CC(=O)Nc4cnc(C)c(C(F)(F)F)c4)cc3)cn2)cn1` [Compound P-0254, 2-[4-[2-[(1-ethylpyrazol-4-yl)amino]pyrimidin-5-yl]phenyl]-N-[6-methyl-5-(trifluoromethyl)-3-pyridyl]acetamide], the GI50 in assay [1] is 0.0001 to 10 µM. Also, the IC50 in assay [2] lay within 0.0001 to 10 µM.

As to `Cn1cc(Nc2ncc(-c3ccc(CC(=O)Nc4cc(C(F)(F)F)ccn4)cc3F)cn2)cn1` [Compound P-0017, 2-[3-fluoro-4-[2-[(1-methylpyrazol-4-yl)amino]pyrimidin-5-yl]phenyl]-N-[4-(trifluoromethyl)-2-pyridyl]acetamide], the 50% growth inhibitory concentration (GI50) in assay [1] is 0.0001 to 10 µM. In assay [2], this compound registered an IC50 of 0.0001 to 10 µM.

As to `COc1ncc(NC(=O)Cc2ccc(-c3cnc4[nH]c(C#CC(C)(C)O)cc4c3)cc2)cc1C(F)(F)F` [Compound P-0214, 2-(4-(2-(3-hydroxy-3-methylbut-1-yn-1-yl)-1H-pyrrolo[2,3-b]pyridin-5-yl)phenyl)-N-(6-methoxy-5-(trifluoromethyl)pyridin-3-yl)acetamide], the GI50 in assay [1] was in the range of 0.0001 to 10 µM. The same compound displayed an IC50 in assay [2] of 0.0001 to 10 µM.

Take `Cc1ncc(NC(=O)Cc2ccc(-c3cnc(Nc4cnn(C5CC5)c4)nc3)cc2F)cc1C(F)(F)F` [Compound P-0239, 2-[4-[2-[(1-cyclopropylpyrazol-4-yl)amino]pyrimidin-5-yl]-2-fluoro-phenyl]-N-[6-methyl-5-(trifluoromethyl)-3-pyridyl]acetamide]: in assay [1], the GI50 lay in the range of 0.0001 to 10 µM. Besides, the IC50 in assay [2] was 0.0001 to 10 µM.

Regarding `COc1ncc(NC(=O)Cc2ccc(-c3cnc(Nc4cnn(C(F)F)c4)nc3)cc2)cc1C(F)(F)F` [Compound P-0211, 2-[4-[2-[[1-(difluoromethyl)pyrazol-4-yl]amino]pyrimidin-5-yl]phenyl]-N-[6-methoxy-5-(trifluoromethyl)-3-pyridyl]acetamide], the GI50 in assay [1] is 0.0001 to 10 µM. In assay [2], this compound registered an IC50 of 0.0001 to 10 µM.

With `CCn1cc(Nc2ncc(-c3ccc(CC(=O)Nc4cncc(C(F)(F)F)c4)c(F)c3)cn2)cn1` [Compound P-0258, 2-[4-[2-[(1-ethylpyrazol-4-yl)amino]pyrimidin-5-yl]-2-fluoro-phenyl]-N-[5-(trifluoromethyl)-3-pyridyl]acetamide], in assay [1], the GI50 lay within 0.0001 to 10 µM. This compound also yielded an IC50 in assay [2] of 0.0001 to 10 µM.

`COc1ncc(NC(=O)Cc2ccc(-c3cnc4[nH]nc(OC)c4c3)cc2)cc1C(F)(F)F` [Compound P-0212, 2-[4-(3-methoxy-1H-pyrazolo[3,4-b]pyridin-5-yl)phenyl]-N-[6-methoxy-5-(trifluoromethyl)-3-pyridyl]acetamide]: in assay [1], the GI50 lay in the range of 0.0001 to 10 µM. Further, the IC50 in assay [2] is 0.0001 to 10 µM.

In the case of `CCOc1n[nH]c2ncc(-c3ccc(CC(=O)Nc4cnc(OC)c(C(F)(F)F)c4)cc3F)cc12` [Compound P-0202, 2-[4-(3-ethoxy-1H-pyrazolo[3,4-b]pyridin-5-yl)-3-fluoro-phenyl]-N-[6-methoxy-5-(trifluoromethyl)-3-pyridyl]acetamide], the GI50 in assay [1] fell in the range of 0.0001 to 10 µM. Moreover, the IC50 in assay [2] fell in the range of 0.0001 to 10 µM.

For `COCCn1cc(Nc2ncc(-c3ccc(CC(=O)Nc4cc(C(F)(F)F)ccn4)c(F)c3)cn2)cn1` [Compound P-0270, 2-[2-fluoro-4-[2-[[1-(2-methoxyethyl)pyrazol-4-yl]amino]pyrimidin-5-yl]phenyl]-N-[4-(trifluoromethyl)-2-pyridyl]acetamide], in assay [1], the GI50 lay within 0.0001 to 10 µM. The compound also had an IC50 in assay [2] of 0.0001 to 10 µM.

As for `O=C(Cc1ccc(-c2cnc(Nc3cnn(C4CC4)c3)nc2)cc1F)Nc1ccc(C(F)(F)F)cn1` [Compound P-0243, 2-[4-[2-[(1-cyclopropylpyrazol-4-yl)amino]pyrimidin-5-yl]-2-fluoro-phenyl]-N-[5-(trifluoromethyl)-2-pyridyl]acetamide], in assay [1], the concentration for 50% growth inhibition (GI50) fell in the range of 0.0001 to 10 µM. In assay [2], this compound had an IC50 of 0.0001 to 10 µM.

For `COCCn1cc(Nc2ncc(-c3ccc(CC(=O)Nc4ccc(C(F)(F)F)nc4)cc3)cn2)cn1` [Compound P-0273, 2-[4-[2-[[1-(2-methoxyethyl)pyrazol-4-yl]amino]pyrimidin-5-yl]phenyl]-N-[6-(trifluoromethyl)-3-pyridyl]acetamide], in assay [1], the GI50 lay within 0.0001 to 10 µM. Moreover, the IC50 in assay [2] fell in the range of 0.0001 to 10 µM.

For `COc1ncc(NC(=O)Cc2ccc(-c3cnc4[nH]c(C#CC(C)(C)C)cc4c3)cc2)cc1C(F)(F)F` [Compound P-0219, 2-[4-[2-(3,3-dimethylbut-1-ynyl)-1H-pyrrolo[2,3-b]pyridin-5-yl]phenyl]-N-[6-methoxy-5-(trifluoromethyl)-3-pyridyl]acetamide], the GI50 in assay [1] lay in the range of 0.0001 to 10 µM. The IC50 in assay [2] lay within 0.0001 to 10 µM.

As to `COc1cc(-c2cc3cc(-c4ccc(CC(=O)Nc5cncc(C(F)(F)F)c5)cc4F)cnc3[nH]2)ccn1` [Compound P-0200, 2-(3-fluoro-4-(2-(2-methoxypyridin-4-yl)-1H-pyrrolo[2,3-b]pyridin-5-yl)phenyl)-N-(5-(trifluoromethyl)pyridin-3-yl)acetamide], in assay [1], the GI50 was in the range of 0.0001 to 10 µM. The compound also displayed an IC50 in assay [2] of 0.0001 to 10 µM.

As for `O=C(Cc1ccc(-c2cnc(Nc3cnn(C(F)F)c3)nc2)cc1)Nc1cncc(C(F)(F)F)c1` [Compound P-0209, 2-[4-[2-[[1-(difluoromethyl)pyrazol-4-yl]amino]pyrimidin-5-yl]phenyl]-N-[5-(trifluoromethyl)-3-pyridyl]acetamide], the GI50 in assay [1] lay in the range of 0.0001 to 10 µM. Also, the 50% inhibitory concentration (IC50) in assay [2] was 0.0001 to 10 µM.

Consider `O=C(Cc1ccc(-c2cnc(Nc3cnn(C4CC4)c3)nc2)cc1F)Nc1cncc(C(F)(F)F)c1` [Compound P-0238, 2-[4-[2-[(1-cyclopropylpyrazol-4-yl)amino]pyrimidin-5-yl]-2-fluoro-phenyl]-N-[5-(trifluoromethyl)-3-pyridyl]acetamide], for which the GI50 in assay [1] was in the range of 0.0001 to 10 µM. The IC50 in assay [2] was in the range of 0.0001 to 10 µM.

On to `CCn1cc(Nc2ncc(-c3ccc(CC(=O)Nc4ccc(C(F)(F)F)cn4)cc3)cn2)cn1` [Compound P-0251, 2-[4-[2-[(1-ethylpyrazol-4-yl)amino]pyrimidin-5-yl]phenyl]-N-[5-(trifluoromethyl)-2-pyridyl]acetamide], for which the GI50 in assay [1] was 0.0001 to 10 µM. In assay [2], this compound returned an IC50 of 0.0001 to 10 µM.

In the case of `CCn1cc(Nc2ncc(-c3cc(F)c(CC(=O)Nc4cnc(OC)c(C(F)(F)F)c4)cc3F)cn2)cn1` [Compound P-0247, 2-[4-[2-[(1-ethylpyrazol-4-yl)amino]pyrimidin-5-yl]-2,5-difluoro-phenyl]-N-[6-methoxy-5-(trifluoromethyl)-3-pyridyl]acetamide], in assay [1], the 50% growth inhibitory concentration (GI50) fell in the range of 0.0001 to 10 µM. In assay [2], this compound came in with an IC50 of 0.0001 to 10 µM.

Regarding `COc1ncc(NC(=O)Cc2ccc(-c3cnc4[nH]nc(NC(=O)C(F)(F)F)c4c3)cc2)cc1C(F)(F)F` [Compound P-0215, 2,2,2-trifluoro-N-[5-[4-[2-[[6-methoxy-5-(trifluoromethyl)-3-pyridyl]amino]-2-oxo-ethyl]phenyl]-1H-pyrazolo[3,4-b]pyridin-3-yl]acetamide], the GI50 in assay [1] lay within 0.0001 to 10 µM. Besides, the IC50 in assay [2] fell in the range of 0.0001 to 10 µM.

For the origin of these results see patent US10160747B2, “Compounds and methods for kinase modulation, and indications therefor” (Plexxikon Inc., priority 2016, dated 2018).
